According to patent US20150225369A1, “DDR2 INHIBITORS FOR THE TREATMENT OF OSTEOARTHRITIS” (Merck Patent GmbH, priority 2012, published 2015):

These compounds were tested against T1, His-tagged human recombinant DDR-2 kinase domain (His-TEV-DDR2 467-855 aa) (Homo sapiens, UniProt Q16832) (assay: Autophosphorylation assay for biochemical activity testing of DDR2 (HTRF)). Conditions: 4 nM DDR2 kinase domain, 150 μM ATP, 150 min at 22° C.
T1 construct: His-TEV-DDR2 467-855 aa
T1 sequence (Q16832 467-855): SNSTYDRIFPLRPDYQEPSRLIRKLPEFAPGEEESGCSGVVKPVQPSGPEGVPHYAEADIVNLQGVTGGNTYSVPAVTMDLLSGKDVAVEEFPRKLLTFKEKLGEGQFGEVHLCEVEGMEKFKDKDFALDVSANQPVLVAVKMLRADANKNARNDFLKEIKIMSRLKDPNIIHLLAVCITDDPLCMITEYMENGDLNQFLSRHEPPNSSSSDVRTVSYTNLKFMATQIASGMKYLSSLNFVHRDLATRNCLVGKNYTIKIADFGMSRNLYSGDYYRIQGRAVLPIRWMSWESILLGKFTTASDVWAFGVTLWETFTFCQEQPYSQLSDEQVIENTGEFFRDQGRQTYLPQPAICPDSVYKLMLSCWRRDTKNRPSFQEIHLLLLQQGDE
Description: The autophosphorylation assay was run in two steps: the enzymatic reaction in which His-tagged DDR2 with ATP as co-substrate phosphorylates itself and the detection reaction where a time resolved FRET between XL665® labelled anti-6His antibody bound to the His-tag of the enzyme and cryptate labelled anti-phospho-Tyrosine-antibody (PT66) bound the phosphorylated Tyrosine residue of DDR2 was analysed. The autophosphorylation activity was detectable directly via the increase in HTRF signal.
The autophosphorylation assay was performed as 1536 well or 384 well HTRF® (Cisbio, Codolet, France) assay format in Greiner low volume medium binding 384-well microtiter plates and was used for high throughput screen. […] The ratio of the emission signals was determined. The full value used was the inhibitor-free reaction.

| Compound | IC50 [µM] |
| --- | --- |
| CCn1cc(C(F)(F)F)cc(NC(=O)NCc2ccc(Oc3ccnc(C(=O)NC)c3)cc2)c1=O [compound 11] | 0.091 |
| Cc1cc(Oc2ccc(CNC(=O)Nc3cc4ccccc4cn3)cc2C)ccn1 [compound 34] | 11 |
| COc1nc2ccccc2cc1NC(=O)NCc1ccc(Oc2ccnc(C)c2)c(C)c1 [compound 33] | 1.7 |
| CNC(=O)c1cc(Oc2ccc(CNC(=O)Nc3ccc(C)cn3)cc2)ccn1 [compound 12] | 2 |
| CNC(=O)c1cc(Oc2ccc(CNC(=O)Nc3ccccn3)cc2)ccn1 [compound 3] | 3.8 |
| CNC(=O)c1cc(Oc2ccc(CNC(=O)Nc3cc4ccccc4nc3OC)cc2)ccn1 [compound 11] | 0.19 |
| CNC(=O)c1cc(Oc2ccc(CNC(=O)Nc3ccnc(Cl)c3)cc2)ccn1 [compound 6] | 1 |
| CNC(=O)c1cc(Oc2ccc(CNC(=O)Nc3cc(Cl)nc(Cl)c3)cc2)ccn1 [compound 2] | 1.5 |

Same assay, conditions: Table 6; 4 nM DDR2 kinase domain, 150 μM ATP

| Compound | IC50 [µM] |
| --- | --- |
| CNC(=O)c1cc(Oc2ccc(OCC(=O)Nc3cc(C(F)(F)F)cn(C)c3=O)cc2)ccn1 [compound 4] | 0.57 |

Same assay, conditions: biochemical DDR2 autophosphorylation

| Compound | IC50 [µM] |
| --- | --- |
| Cc1cc(Cl)ccc1NC(=O)NCc1ccc(Oc2ccncc2)cc1 [compound 54, 1-(4-Chloro-2-methyl-phenyl)-3-[4-(pyridin-4-yloxy)-benzyl]-urea] | ≥ 100 |
| O=C(NCc1ccc(Oc2ccncc2)cc1)Nc1ccccc1Cl [compound 33] | ≥ 100 |
| Cc1ccc(NC(=O)NCc2ccc(Oc3ccncc3)cc2)cc1 [compound 18] | 4.1 |
| O=C(NCc1ccc(Oc2ccncc2)cc1)Nc1cc(C(F)(F)F)ccc1Cl [compound 43, 1-(2-Chloro-5-trifluoromethyl-phenyl)-3-[4-(pyridin-4-yloxy)-benzyl]-urea] | 0.042 |
| Cc1cccc(NC(=O)NCc2ccc(Oc3ccncc3)cc2)c1C [compound 24] | ≥ 100 |
| O=C(NCc1ccc(Oc2ccncc2)cc1)Nc1ccccc1 [compound 245, 1-Phenyl-3-[4-(pyridin-4-yloxy)-benzyl]-urea] | 9.2 |
| CC(C)(C)c1ccc(NC(=O)NCc2ccc(Oc3ccncc3)cc2)cc1 [compound 56, 1-(4-tert-Butyl-phenyl)-3-[4-(pyridin-4-yloxy)-benzyl]-urea] | 16 |
| CC(C)c1ccc(NC(=O)NCc2ccc(Oc3ccncc3)cc2)cc1 [compound 49, 1-(4-Isopropyl-phenyl)-3-[4-(pyridin-4-yloxy)-benzyl]-urea] | 9.6 |
| CNC(=O)c1cc(Oc2ccc(CNC(=O)Nc3cc(C)ccc3OC3CCNCC3)cc2)ccn1 [compound 159, 4-(4-{3-[5-Methyl-2-(piperidin-4-yloxy)-phenyl]-ureidomethyl}-phenoxy)-pyridine-2-carboxylic acid methylamide] | 0.083 |
| CC(=O)c1ccc(NC(=O)NCc2ccc(Oc3ccncc3)cc2)cc1 [compound 47, 1-(4-Acetyl-phenyl)-3-[4-(pyridin-4-yloxy)-benzyl]-urea] | 8.8 |
| O=C(NCc1ccc(Oc2ccncc2)cc1)Nc1ccc(Br)cc1Cl [compound 35, 1-(4-Bromo-2-chloro-phenyl)-3-[4-(pyridin-4-yloxy)-benzyl]-urea] | 9.5 |
| CNC(=O)c1cc(Oc2ccc(CNC(=O)Nc3ncc(C(F)(F)F)cc3Cl)cc2)ccn1 [compound 91, 4-{4-[3-(3-Chloro-5-trifluoromethyl-pyridin-2-yl)-ureidomethyl]-phenoxy}-pyridine-2-carboxylic acid methylamide] | 6.6 |
| CNC(=O)c1cc(Oc2ccc(CNC(=O)Nc3cc(C(F)(F)F)c(Cl)cc3OCC(=O)OC(C)(C)C)cc2)ccn1 [compound 107, (5-Chloro-2-{3-[4-(2-methylcarbamoyl-pyridin-4-yloxy)-benzyl]-ureido}-4-trifluoromethyl-phenoxy)-acetic acid tert-butyl ester] | 0.022 |
| COc1ccc(OC)c(NC(=O)NCc2ccc(Oc3ccncc3)cc2)c1 [compound 15] | 0.44 |
| CNC(=O)c1cc(Oc2ccc(CNC(=O)Nc3cc(C)ccc3OC3CCNCC3)cc2C)ccn1 [compound 171, 4-(2-Methyl-4-{3-[5-methyl-2-(piperidin-4-yloxy)-phenyl]-ureidomethyl}-phenoxy)-pyridine-2-carboxylic acid methylamide] | 0.047 |
| CNCCOc1cc(Cl)c(C(F)(F)F)cc1NC(=O)NCc1ccc(Oc2ccnc(C(=O)NC)c2)c(C)c1 [compound 147, 4-(4-{3-[4-Chloro-2-(2-methylamino-ethoxy)-5-trifluoromethyl-phenyl]-ureidomethyl}-2-methyl-phenoxy)-pyridine-2-carboxylic acid methylamide] | 0.041 |
| CNC(=O)c1cc(Oc2ccc(CNC(=O)Nc3cc(C(F)(F)F)c(Cl)cc3OC)cc2F)ccn1 [compound 231, 4-{4-[3-(4-Chloro-2-methoxy-5-trifluoromethyl-phenyl)-ureidomethyl]-2-fluoro-phenoxy}-pyridine-2-carboxylic acid methylamide] | 0.1 |

| Compound | IC50 [µM] |
| --- | --- |
| CNC(=O)c1cc(Oc2ccc(CNC(=O)Nc3cc(C(F)(F)F)ccc3OC)cc2C)ccn1 [compound 102, 4-{4-[3-(2-Methoxy-5-trifluoromethyl-phenyl)-ureidomethyl]-2-methyl-phenoxy}-pyridine-2-carboxylic acid methylamide] | 0.05 |
| CNC(=O)c1cc(Oc2ccc(CNC(=O)Nc3ccc(C(=O)OC)cc3OC)cc2)ccn1 [compound 82, 3-Methoxy-4-{3-[4-(2-methylcarbamoyl-pyridin-4-yloxy)-benzyl]-ureido}-benzoic acid methyl ester] | 2.9 |
| CNC(=O)c1cc(Oc2ccc(CNC(=O)Nc3ccccc3)cc2)ccn1 [compound 181, 4-{4-[(3-Phenyl-ureido)-methyl]-phenoxy}-pyridine-2-carboxylic acid methylamide] | 4.9 |
| Cc1ccc(NC(=O)NCc2ccc(Oc3ccncc3)cc2)c(C)c1 [compound 30] | 28 |
| CNC(=O)c1cc(Oc2ccc(CNC(=O)Nc3cc(C(F)(F)F)c(Cl)cc3OCCN(C)C)cc2)ccn1 [compound 95, 4-(4-{3-[4-Chloro-2-(2-dimethylamino-ethoxy)-5-trifluoromethyl-phenyl]-ureidomethyl}-phenoxy)-pyridine-2-carboxylic acid methylamide] | 0.081 |
| Cc1cccc(NC(=O)NCc2ccc(Oc3ccncc3)cc2)c1 [compound 6] | 1 |
| CNC(=O)c1cc(Oc2ccc(CNC(=O)Nc3cc(C(F)(F)F)ccc3OCCOC)cc2C)ccn1 [compound 168, 4-(4-{3-[2-(2-Methoxy-ethoxy)-5-trifluoromethyl-phenyl]-ureidomethyl}-2-methyl-phenoxy)-pyridine-2-carboxylic acid methylamide] | 0.13 |
| O=C(NCc1ccc(Oc2ccncc2)cc1)Nc1ccc(C(F)(F)F)cc1Cl [compound 37, 1-(2-Chloro-4-trifluoromethyl-phenyl)-3-[4-(pyridin-4-yloxy)-benzyl]-urea] | 2.8 |
| O=C(NCc1ccc(Oc2ccncc2)cc1)Nc1ccccc1C(F)(F)F [compound 26] | 20 |
| CNC(=O)c1cc(Oc2ccc(CNC(=O)Nc3cc(C)c(Cl)cc3OCCN3CCCC3)c(C)c2)ccn1 [compound 134, 4-(4-{3-[4-Chloro-5-methyl-2-(2-pyrrolidin-1-yl-ethoxy)-phenyl]-ureidomethyl}-3-methyl-phenoxy)-pyridine-2-carboxylic acid methylamide] | 1.2 |
| COc1cc(Cl)c(C)cc1NC(=O)NCc1ccc(Oc2ccncc2)c(C)c1 [compound 248, 1-(4-Chloro-2-methoxy-5-methyl-phenyl)-3-[3-methyl-4-(pyridin-4-yloxy)-benzyl]-urea] | 0.77 |
| CCN(CC)CCOc1ccc(C(F)(F)F)cc1NC(=O)NCc1ccc(Oc2ccnc(C(=O)NC)c2)cc1 [compound 108, 4-(4-{3-[2-(2-Diethylamino-ethoxy)-5-trifluoromethyl-phenyl]-ureidomethyl}-phenoxy)-pyridine-2-carboxylic acid methylamide] | 0.03 |
| CNC(=O)c1cc(Oc2ccc(CNC(=O)Nc3cc4ccccc4cn3)cc2)ccn1 [compound 96, 4-{4-[(3-Isoquinolin-3-yl-ureido)-methyl]-phenoxy}-pyridine-2-carboxylic acid methylamide] | 0.17 |
| Cc1cc(NC(=O)NCc2ccc(Oc3ccncc3)c(C)c2)c(OCCN(C)C)cc1Cl [compound 246, 1-[4-Chloro-2-(2-dimethylamino-ethoxy)-5-methyl-phenyl]-3-[3-methyl-4-(pyridin-4-yloxy)-benzyl]-urea] | 0.23 |
| Cc1ccc(C)c(NC(=O)NCc2ccc(Oc3ccncc3)cc2)c1 [compound 25] | 13 |
| CNC(=O)c1cc(Oc2ccc(C(C)NC(=O)Nc3cc(C(F)(F)F)ccc3OC)cc2)ccn1 (stereo not drawn) [compound 69, 4-(4-{1-[3-(2-Methoxy-5-trifluoromethyl-phenyl)-ureido]-ethyl}-phenoxy)-pyridine-2-carboxylic acid methylamide] | 0.15 |
